Like-named read-outs stand apart in the source and are kept apart here.
Key:
[1] = biological target: T1, FSHR (Homo sapiens, UniProt P23945); assay: EC50 of cyclic AMP production in CHO FSHR cells + EC20 FSH (Assay A); type: cell-based
T1 construct: expressed in transfected cells; host or cells: CHO (Cho-FSHR-LUC-1-1-43)
In short: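 cAMP HTRF ratio (665/620 nm) read after 1 h, 37 °C exposure of CHO-FSHR cells to compound in presence of EC20 FSH ([…]) and IBMX 200 μM. Responses given relative to FSH standard maximum; EC50 derived.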

[2] = biological target: T2, follicle-stimulating hormone (FSH) receptor (Rattus norvegicus, UniProt P20395); assay: Rat granulosa EC50 FSH (Assay B); type: cell-based; conditions: rat granulosa cells
T2 construct: endogenous in cells; host or cells: rat granulosa cells
T2 sequence (P20395 18-692): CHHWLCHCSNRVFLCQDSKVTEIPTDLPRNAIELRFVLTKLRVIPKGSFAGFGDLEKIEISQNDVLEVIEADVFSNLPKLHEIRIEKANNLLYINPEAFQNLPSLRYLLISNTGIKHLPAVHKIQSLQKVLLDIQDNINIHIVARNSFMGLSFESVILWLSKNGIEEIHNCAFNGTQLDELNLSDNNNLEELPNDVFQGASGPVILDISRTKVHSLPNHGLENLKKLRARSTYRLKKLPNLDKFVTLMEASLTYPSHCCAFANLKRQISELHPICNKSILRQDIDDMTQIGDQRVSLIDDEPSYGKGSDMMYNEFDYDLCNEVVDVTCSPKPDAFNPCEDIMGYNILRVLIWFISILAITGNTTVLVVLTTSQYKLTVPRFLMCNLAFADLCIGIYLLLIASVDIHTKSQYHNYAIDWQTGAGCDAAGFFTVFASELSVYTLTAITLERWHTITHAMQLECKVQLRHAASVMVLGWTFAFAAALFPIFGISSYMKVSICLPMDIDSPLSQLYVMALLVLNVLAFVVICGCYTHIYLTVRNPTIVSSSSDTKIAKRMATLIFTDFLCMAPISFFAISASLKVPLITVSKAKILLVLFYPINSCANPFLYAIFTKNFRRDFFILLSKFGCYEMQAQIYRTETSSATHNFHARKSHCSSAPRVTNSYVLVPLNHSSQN
Procedure: Example 11: Rat Granulosa EC50 FSH (Assay B)
The assay was performed pursuant to the teaching of Yanofsky et al. (2006) Allosteric activation of the follicle-stimulating hormone (FSH) receptor by selective, nonpeptide agonists. JBC 281(19): 13226-13233, which is incorporated by reference in the disclosure of the invention.

[3] = CHO FSHR cells + EC20 FSH, Table 1, read-out: Assay A EC50 of cyclic AMP production
[4] = CHO FSHR cells + EC20 FSH, Table 2, read-out: Assay A EC50 of cyclic AMP production

T1 sequence (P23945 18-695): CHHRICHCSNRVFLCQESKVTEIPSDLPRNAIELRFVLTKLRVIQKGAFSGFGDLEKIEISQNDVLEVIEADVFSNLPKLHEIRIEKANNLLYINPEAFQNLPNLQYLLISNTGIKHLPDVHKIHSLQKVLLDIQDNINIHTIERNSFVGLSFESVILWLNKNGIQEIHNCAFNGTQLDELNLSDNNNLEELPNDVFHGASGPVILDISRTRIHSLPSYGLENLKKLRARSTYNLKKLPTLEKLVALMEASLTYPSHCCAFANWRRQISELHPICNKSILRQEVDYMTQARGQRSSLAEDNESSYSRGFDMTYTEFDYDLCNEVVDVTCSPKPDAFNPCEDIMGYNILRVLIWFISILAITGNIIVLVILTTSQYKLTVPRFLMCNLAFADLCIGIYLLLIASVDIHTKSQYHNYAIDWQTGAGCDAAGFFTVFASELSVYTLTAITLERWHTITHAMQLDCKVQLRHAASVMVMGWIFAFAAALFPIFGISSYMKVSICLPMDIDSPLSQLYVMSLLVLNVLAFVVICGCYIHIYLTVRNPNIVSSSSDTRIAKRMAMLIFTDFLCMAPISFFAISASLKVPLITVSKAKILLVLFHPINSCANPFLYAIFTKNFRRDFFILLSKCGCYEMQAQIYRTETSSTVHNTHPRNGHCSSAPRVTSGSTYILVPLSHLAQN
T1 sequence (P01215 25-116 partner): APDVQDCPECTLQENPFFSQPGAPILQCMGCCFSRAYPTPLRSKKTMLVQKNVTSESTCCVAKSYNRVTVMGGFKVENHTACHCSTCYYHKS
T1 sequence (P01225 19-129 partner): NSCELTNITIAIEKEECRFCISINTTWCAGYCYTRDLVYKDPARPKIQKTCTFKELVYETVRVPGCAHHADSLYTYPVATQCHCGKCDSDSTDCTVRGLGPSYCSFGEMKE

SMILES	EC50 [1, 3]	EC50 ([2]; Table 1)	EC50 [1, 4]	EC50 ([2]; Table 2)	also measured
Cc1ccccc1N1CCN(c2ccc(C(=O)NCCCN3CCCC3=O)cc2NC(=O)c2cscn2)CC1 [Compound 73]	100 to 1000 nM	1000 to 10000 nM			
Cc1nc(C(=O)Nc2cc(C(=O)NCCCN3CCCC3=O)ccc2N2CCN(c3ccccc3C)CC2)cs1 [Compound 74]	100 to 1000 nM	100 to 1000 nM			
Cc1ccccc1N1CCN(c2ccc(C(=O)NCCCN3CCCC3=O)cc2NC(=O)c2coc(C3CC3)n2)CC1 [Compound 105]	< 100 nM	100 to 1000 nM			
Cc1ccccc1N1CCN(c2ccc(C(=O)NCCCN3CCCC3=O)cc2NC(=O)c2ccc(F)cn2)CC1 [Compound 128]	100 to 1000 nM	100 to 1000 nM			
Cc1ccccc1N1CCN(c2ccc(C(=O)NCCCN3CCCC3=O)cc2NC(=O)c2ccc(Br)o2)CC1 [Compound 143, 5-Bromo-furan-2-carboxylic acid [5-[3-(2-oxo-pyrrolidin-1-yl)-propylcarbamoyl]-2-(4-o-tolyl-piperazin-1-yl)-phenyl]-amide]		100 to 1000 nM			EC50 [1]: 100 to 1000 nM
Cc1ccccc1N1CCN(c2ccc(C(=O)NCCCN3C(=O)CCC3=O)cc2NC(=O)c2ccco2)CC1 [Compound 147]	100 to 1000 nM	100 to 1000 nM			
Cc1csc(C(=O)Nc2cc(C(=O)NCCCN3CCCC3=O)ccc2N2CCN(c3ccccc3C)CC2)n1 [Compound 203]	100 to 1000 nM	100 to 1000 nM			
Cc1ccccc1N1CCN(c2ccc(C(=O)N3CCC4(CCOC4)CC3)cc2NC(=O)c2ccco2)CC1 [Compound 224]		1000 to 10000 nM			activation at 5 µM ([1]; 1 h, 5 μM, effect relative to maximum response of the FSH standard, Table 1): 10%
Cc1ccc(C(=O)Nc2cc(C(=O)NCCCN3CCCC3=O)ccc2N2CCN(c3ccccc3C(F)(F)F)CC2)o1 [Compound 246]	1000 to 10000 nM	1000 to 10000 nM			
Cc1ccccc1N1CCN(c2ccc(C(=O)NCc3cccc(C(N)=O)c3)cc2NC(=O)c2coc(C3CC3)n2)CC1 [Compound 304]			< 100 nM		Assay B % at 1.25 μM ([2]; Table 2): 79%
Cc1ccccc1N1CCN(c2ccc(C(=O)NCCc3cccc(C(N)=O)c3)cc2NC(=O)c2coc(C3CC3)n2)CC1 [Compound 307]			100 to 1000 nM	1000 to 10000 nM	
Cc1ccccc1N1CCN(c2ccc(C(=O)NCc3cccc(CN(C)C)c3)cc2NC(=O)c2ccco2)CC1 [Compound 320]			100 to 1000 nM	100 to 1000 nM	
Cc1ccccc1N1CCN(c2ccc(C(=O)NCCCc3nn[nH]n3)cc2NC(=O)c2coc(C3CC3)n2)CC1 [Compound 392]			< 100 nM	100 to 1000 nM	
Cc1nc(C)n(CCCNC(=O)c2ccc(N3CCN(c4ccccc4C)CC3)c(NC(=O)c3coc(C4CC4)n3)c2)n1 [Compound 394]			100 to 1000 nM		Assay B % at 1.25 μM ([2]; Table 2): 50%
Cc1ccc(C(=O)Nc2cc(C(=O)NCCCN3CCCC3=O)ccc2N2CCN(c3ccccc3C3CC3)CC2)o1 [Compound 523]			100 to 1000 nM	100 to 1000 nM	
Cc1ccnc(N2CCN(c3ccc(C(=O)NCCCN4CCCC4=O)cc3NC(=O)c3coc(C4CC4)n3)CC2)c1 [Compound 529]			100 to 1000 nM	1000 to 10000 nM	

The next lines start with results.

EC50 [1, 3]	EC50 ([2]; Table 1)	EC50 [1, 4]	EC50 ([2]; Table 2)	SMILES	also measured
100 to 1000 nM	100 to 1000 nM			CCc1nc(C(=O)Nc2cc(C(=O)NCCCN3CCCC3=O)ccc2N2CCN(c3ccccc3C)CC2)co1 [Compound 79]	
100 to 1000 nM	1000 to 10000 nM			Cc1ccccc1N1CCN(c2ccc(C(=O)NCCCN3CCCC3=O)cc2NC(=O)c2ccccc2F)CC1 [Compound 85]	
100 to 1000 nM	100 to 1000 nM			Cc1ccccc1N1CCN(c2ccc(C(=O)NCCCN3CCCC3=O)cc2NC(=O)c2ccc(Cl)o2)CC1 [Compound 135]	
100 to 1000 nM	100 to 1000 nM			Cc1ccccc1N1CCN(c2ccc(C(=O)NCCCN3C(=O)CSC3=O)cc2NC(=O)c2ccco2)CC1 [Compound 150]	
100 to 1000 nM	< 100 nM			Cc1ccccc1N1CCN(c2ccc(C(=O)NCCCc3cn[nH]c3)cc2NC(=O)c2ccco2)CC1 [Compound 152]	
100 to 1000 nM	1000 to 10000 nM			Cc1ccccc1N1CCN(c2ccc(C(=O)NCCCN3CCOC3=O)cc2NC(=O)c2ccco2)CC1 [Compound 155]	
100 to 1000 nM	1000 to 10000 nM			C#Cc1ccc(C(=O)Nc2cc(C(=O)NCCCN3CCCC3=O)ccc2N2CCN(c3ccccc3C)CC2)o1 [Compound 176, 5-ethynyl-furan-2-carboxylic acid [5-[3-(2-oxo-pyrrolidin-1-yl)-propylcarbamoyl]-2-(4-o-tolyl-piperazin-1-yl)-phenyl]-amide]	
100 to 1000 nM	100 to 1000 nM			Cc1ccccc1N1CCN(c2ccc(C(=O)NCCc3cccc(C(N)=O)c3)cc2NC(=O)c2ccco2)CC1 [Compound 188]	
< 100 nM	100 to 1000 nM			Cc1ccccc1N1CCN(c2ccc(C(=O)NCc3cccc(C(N)=O)c3)cc2NC(=O)c2ccco2)CC1 [Compound 189]	
100 to 1000 nM	100 to 1000 nM			Cc1ccccc1N1CCN(c2ccc(C(=O)NCCCN3CCCC3=O)cc2NC(=O)c2coc(Cl)n2)CC1 [Compound 207]	
100 to 1000 nM				Cc1ccc(C(=O)Nc2cc(C(=O)NCCCCO)ccc2N2CCN(c3ccccc3C)CC2)o1 [Compound 241, 5-Methyl-furan-2-carboxylic acid [5-(4-hydroxy-butylcarbamoyl)-2-(4-o-tolyl-piperazin-1-yl)-phenyl]-amide]	Assay B % at 5 μM ([2]; 5 μM, Table 1): 177%
		100 to 1000 nM	100 to 1000 nM	Cc1ccccc1N1CCN(c2ccc(C(=O)N[C@H]3O[C@@H](CO)[C@H](O)[C@@H]3O)cc2NC(=O)c2coc(C3CC3)n2)CC1 [Compound 311]	
		100 to 1000 nM	1000 to 10000 nM	Cc1ccc(C(=O)Nc2cc(C(=O)NCCCN3CCOC3=O)ccc2N2CCN(c3ccccc3C)CC2)o1 [Compound 322]	
		1000 to 10000 nM	100 to 1000 nM	Cc1ccccc1N1CCN(c2ccc(C(=O)NCCS(=O)(=O)N3CCCC3)cc2NC(=O)c2coc(C3CC3)n2)CC1 [Compound 344]	
		100 to 1000 nM	1000 to 10000 nM	Cc1ncc(C(=O)Nc2cc(C(=O)NCCCN3CCCC3=O)ccc2N2CCN(c3ccccc3C)CC2)o1 [Compound 349]	
		100 to 1000 nM	< 100 nM	Cc1ccccc1N1CCN(c2ccc(C(=O)NCCCN3C(=O)[C@H]4C[C@@H]3C(O)C4O)cc2NC(=O)c2coc(C3CC3)n2)CC1 (some centres unmarked) [Compound 365]	
		100 to 1000 nM	1000 to 10000 nM	Cc1ccc(CNc2cc(C(=O)NCCCN3CCCC3=O)ccc2N2CCN(c3ccccc3C)CC2)o1 [Compound 410]	
		100 to 1000 nM	100 to 1000 nM	Cc1ccccc1N1CCN(c2ccc(C(=O)NCCCN3CCCC3=O)cc2NC(=O)c2ccn(C)n2)CC1 [Compound 435]	
		< 100 nM	1000 to 10000 nM	O=C(NCCCN1CCCC1=O)c1ccc(N2CCN(c3ncccc3Cl)CC2)c(NC(=O)c2coc(C3CC3)n2)c1 [Compound 510]	
		100 to 1000 nM	> 10000 nM	Cc1ccccc1N1CCN(c2ccc(C(=O)NCCCN3CCCC3=O)cc2NCc2ccccn2)CC1 [Compound 526]	
		100 to 1000 nM	1000 to 10000 nM	COc1ccnc(N2CCN(c3ccc(C(=O)NCCCN4CCCC4=O)cc3NC(=O)c3coc(C4CC4)n3)CC2)n1 [Compound 601]	

— patent US9938262B2, “Benzamides” (Merck Patent GmbH, priority 2011, dated 2018)
